Test results taken from article PMC5146859, “Phase 1/2 study of pacritinib, a next generation JAK2/FLT3 inhibitor, in myelofibrosis or other myeloid malignancies” (Journal of Hematology & Oncology, 2016).

System: patients with advanced myeloid malignancies
Experiment: Phase 1 dose escalation: dose-limiting toxicities and MTD
Assay type: in vivo
Description: Phase 1 was a 3 + 3 dose-escalation study. Three to six patients were enrolled at each dose level, depending upon observed dose-limiting toxicities (DLTs) in the cohort. Each patient participated in only one cohort. Oral pacritinib was administered to the first cohort at 100 mg once daily (QD) for 25 consecutive days in a 28-day cycle in cycle 1, with 3 days of rest for pharmacokinetic (PK) sampling, followed by continuous 28-day dosing for the remaining cycles. Subsequent cohorts received escalating pacritinib dose levels of 150, 200, 300, 400, 500, and 600 mg QD. All patients at each dose level were observed through the end of the first cycle before the next dose level could begin treatment. […]
The primary objective of phase 1 was to establish the MTD of pacritinib in patients with advanced myeloid malignancies, defined as the highest dose level at which no more than one out of six patients in the cohort experienced a DLT during cycle 1 (25 days) of therapy. […] Clinical benefit rate was assessed as an exploratory endpoint, defined as the proportion of patients who experienced a complete response, partial response, clinical improvement, or stable disease (SD) during the study.

C1=C/COCc2cc(ccc2OCCN2CCCC2)Nc2nccc(n2)-c2cccc(c2)COC/1 [pacritinib, 11-(2-pyrrolidin-1-yl-ethoxy)-14,19-dioxa-5,7,26-triaza-tetracyclo[19.3.1.1(2,6). 1(8,12)]heptacosa-1(25),2(26),3,5,8,10,12(27),16,21,23-decaene]
Recommended phase 2 dose (human, in vivo): 400 mg QD | Maximum tolerated dose (MTD) (phase 1, oral): 500 mg QD
